{"source": "ChEMBL document CHEMBL3885861", "about": "“Open TG-GATES”", "species_on_record": "Rattus norvegicus", "test": "Open TG-GATES - Regimen: Daily Repeat", "assay_type": "toxicity, organism-based, Sprague-Dawley", "parameters": "regimen Daily Repeat, gender Male, age 6 weeks", "settings": "in vivo, po, 10 mg/kg, route gavage, dose level Middle; for APTT / Bas / Eos / Fbg / Hb / Ht / Lym / MCH / MCHC / MCV / Mono / Neu / PT / Plat / RBC / Ret / WBC: tissue Blood", "key": {"[1]": {"settings": "72 h, tissue Kidney, time 3 day"}, "[2]": {"settings": "72 h, tissue Plasma, time 3 day"}}}
{"smiles": "Nc1c2c(nc3ccccc13)CCCC2", "note": "[TACRINE]", "values": [{"measurement": "TERMINAL_BW", "setting": "72 h, time 3 day", "value": 217.3, "unit": "g"}, {"measurement": "APTT", "setting": "72 h, time 3 day", "value": 19.9, "unit": "s"}, {"measurement": "Bas", "setting": "72 h, time 3 day", "value": 0, "unit": "%"}, {"measurement": "Eos", "setting": "72 h, time 3 day", "value": 1, "unit": "%"}, {"measurement": "Fbg", "setting": "72 h, time 3 day", "value": 290, "unit": "mg/dL"}, {"measurement": "Hb", "setting": "72 h, time 3 day", "value": 13.5, "unit": "g/dL"}, {"measurement": "Ht", "setting": "72 h, time 3 day", "value": 38.4, "unit": "%"}, {"measurement": "Lym", "setting": "72 h, time 3 day", "value": 76.8, "unit": "%"}, {"measurement": "MCH", "setting": "72 h, time 3 day", "value": 21, "unit": "pg"}, {"measurement": "MCHC", "setting": "72 h, time 3 day", "value": 35.3, "unit": "%"}, {"measurement": "MCV", "setting": "72 h, time 3 day", "value": 59.5, "unit": "fL"}, {"measurement": "Mono", "setting": "72 h, time 3 day", "value": 2.2, "unit": "%"}, {"measurement": "Neu", "setting": "72 h, time 3 day", "value": 19.2, "unit": "%"}, {"measurement": "PT", "setting": "72 h, time 3 day", "value": 15.7, "unit": "s"}, {"measurement": "Plat", "setting": "72 h, time 3 day", "value": 128, "unit": "x10_4/uL"}, {"measurement": "RBC", "setting": "72 h, time 3 day", "value": 645.4, "unit": "x10_4/ul"}, {"measurement": "Ret", "setting": "72 h, time 3 day", "value": 5.5, "unit": "%"}, {"measurement": "WBC", "setting": "72 h, time 3 day", "value": 74.8, "unit": "x10_2/uL"}, {"measurement": "KIDNEY_L", "setting": "[1]", "value": 0.9, "unit": "g"}, {"measurement": "KIDNEY_R", "setting": "[1]", "value": 1, "unit": "g"}, {"measurement": "KIDNEY_TOTAL", "setting": "[1]", "value": 1.9, "unit": "g"}, {"measurement": "LIVER", "setting": "72 h, tissue Liver, time 3 day", "value": 9.2, "unit": "g"}, {"measurement": "A/G", "setting": "[2]", "value": 1.2}, {"measurement": "ALP", "setting": "[2]", "value": 1488.6, "unit": "IU/L"}, {"measurement": "ALT", "setting": "[2]", "value": 42.6, "unit": "IU/L"}, {"measurement": "AST", "setting": "[2]", "value": 75.4, "unit": "IU/L"}, {"measurement": "BUN", "setting": "[2]", "value": 14.4, "unit": "mg/dL"}, {"measurement": "CRE", "setting": "[2]", "value": 0.2, "unit": "mg/dL"}, {"measurement": "Ca", "setting": "[2]", "value": 10.6, "unit": "mg/dL"}, {"measurement": "Cl", "setting": "[2]", "value": 108, "unit": "meq/L"}, {"measurement": "DBIL", "setting": "[2]", "value": 0, "unit": "mg/dL"}, {"measurement": "GLC", "setting": "[2]", "value": 186.2, "unit": "mg/dL"}, {"measurement": "IP", "setting": "[2]", "value": 7.1, "unit": "mg/dL"}, {"measurement": "K", "setting": "[2]", "value": 4.4, "unit": "meq/L"}, {"measurement": "LDH", "setting": "[2]", "value": 253, "unit": "IU/L"}, {"measurement": "Na", "setting": "[2]", "value": 142, "unit": "meq/L"}, {"measurement": "PL", "setting": "[2]", "value": 153.6, "unit": "mg/dL"}, {"measurement": "RALB", "setting": "[2]", "value": 3.1, "unit": "g/dL"}, {"measurement": "TBIL", "setting": "[2]", "value": 0.014, "unit": "mg/dL"}, {"measurement": "TC", "setting": "[2]", "value": 78.6, "unit": "mg/dL"}, {"measurement": "TG", "setting": "[2]", "value": 94.4, "unit": "mg/dL"}, {"measurement": "TP", "setting": "[2]", "value": 5.7, "unit": "g/dL"}, {"measurement": "gamma-GTP", "setting": "[2]", "value": 1, "unit": "IU/L"}, {"measurement": "TERMINAL_BW", "setting": "[…], time 7 day", "value": 245.3, "unit": "g"}, {"measurement": "TERMINAL_BW", "setting": "[…], time 14 day", "value": 297.7, "unit": "g"}, {"measurement": "TERMINAL_BW", "setting": "[…], time 28 day", "value": 336.4, "unit": "g"}, {"measurement": "APTT", "setting": "[…], time 7 day", "value": 22.4, "unit": "s"}, {"measurement": "Bas", "setting": "[…], time 7 day", "value": 0, "unit": "%"}, {"measurement": "Eos", "setting": "[…], time 7 day", "value": 0.6, "unit": "%"}, {"measurement": "Fbg", "setting": "[…], time 7 day", "value": 307.4, "unit": "mg/dL"}, {"measurement": "Hb", "setting": "[…], time 7 day", "value": 14, "unit": "g/dL"}, {"measurement": "Ht", "setting": "[…], time 7 day", "value": 40.1, "unit": "%"}, {"measurement": "Lym", "setting": "[…], time 7 day", "value": 77.4, "unit": "%"}, {"measurement": "MCH", "setting": "[…], time 7 day", "value": 20.9, "unit": "pg"}, {"measurement": "MCHC", "setting": "[…], time 7 day", "value": 34.8, "unit": "%"}, {"measurement": "MCV", "setting": "[…], time 7 day", "value": 60, "unit": "fL"}, {"measurement": "Mono", "setting": "[…], time 7 day", "value": 2.2, "unit": "%"}, {"measurement": "Neu", "setting": "[…], time 7 day", "value": 18.8, "unit": "%"}, {"measurement": "PT", "setting": "[…], time 7 day", "value": 15.8, "unit": "s"}, {"measurement": "Plat", "setting": "[…], time 7 day", "value": 117.3, "unit": "x10_4/uL"}, {"measurement": "RBC", "setting": "[…], time 7 day", "value": 668, "unit": "x10_4/ul"}, {"measurement": "Ret", "setting": "[…], time 7 day", "value": 5.4, "unit": "%"}, {"measurement": "WBC", "setting": "[…], time 7 day", "value": 103.5, "unit": "x10_2/uL"}, {"measurement": "APTT", "setting": "[…], time 14 day", "value": 23.1, "unit": "s"}, {"measurement": "Bas", "setting": "[…], time 14 day", "value": 0, "unit": "%"}, {"measurement": "Eos", "setting": "[…], time 14 day", "value": 0.8, "unit": "%"}, {"measurement": "Fbg", "setting": "[…], time 14 day", "value": 317.6, "unit": "mg/dL"}, {"measurement": "Hb", "setting": "[…], time 14 day", "value": 14.7, "unit": "g/dL"}, {"measurement": "Ht", "setting": "[…], time 14 day", "value": 41.8, "unit": "%"}, {"measurement": "Lym", "setting": "[…], time 14 day", "value": 84.4, "unit": "%"}, {"measurement": "MCH", "setting": "[…], time 14 day", "value": 20.8, "unit": "pg"}, {"measurement": "MCHC", "setting": "[…], time 14 day", "value": 35.1, "unit": "%"}, {"measurement": "MCV", "setting": "[…], time 14 day", "value": 59.4, "unit": "fL"}, {"measurement": "Mono", "setting": "[…], time 14 day", "value": 1.4, "unit": "%"}, {"measurement": "Neu", "setting": "[…], time 14 day", "value": 12.6, "unit": "%"}, {"measurement": "PT", "setting": "[…], time 14 day", "value": 15.5, "unit": "s"}, {"measurement": "Plat", "setting": "[…], time 14 day", "value": 117.2, "unit": "x10_4/uL"}, {"measurement": "RBC", "setting": "[…], time 14 day", "value": 704.4, "unit": "x10_4/ul"}, {"measurement": "Ret", "setting": "[…], time 14 day", "value": 4.3, "unit": "%"}, {"measurement": "WBC", "setting": "[…], time 14 day", "value": 95.3, "unit": "x10_2/uL"}, {"measurement": "APTT", "setting": "[…], time 28 day", "value": 22.6, "unit": "s"}, {"measurement": "Bas", "setting": "[…], time 28 day", "value": 0, "unit": "%"}, {"measurement": "Eos", "setting": "[…], time 28 day", "value": 1, "unit": "%"}, {"measurement": "Fbg", "setting": "[…], time 28 day", "value": 301.8, "unit": "mg/dL"}, {"measurement": "Hb", "setting": "[…], time 28 day", "value": 15.1, "unit": "g/dL"}, {"measurement": "Ht", "setting": "[…], time 28 day", "value": 41.2, "unit": "%"}]}
